Data on 5 compounds can be found in patent publication US9783521B2, “PDE10 inhibitors and related compositions and methods” (Omeros Corporation, priority 2008, dated 2017).

Where only a bound is given, the exact number is not on record here.

Assay [1] relates to PDE10. Conditions: cited from earlier work.
Assay [2] concerns the target PDE10. Conditions: cGMP binding to PDE10; read-out: dissociation constant (Kd); cited from earlier work.
In assay [3] the test system is C57BL/6 male mice. As to the kind of experiment: PCP-induced hyperactivity (psychostimulant-induced model of psychosis). Format: in vivo. On the procedure: Psychostimulant-induced hyperactivity is measured by injecting animals with PCP and monitoring the animals' activity levels in the VersaMax chambers (Accuscan Instruments, Columbus, Ohio) measuring 40×40 cm. Locomotor activity is detected by photobeam breaks as the animal crosses each beam. The animal is placed in the center of the field and left undisturbed for a period of time (20 min to 2 hr) to measure its spontaneous activity in a novel environment. Measurements used to assess locomotor activity include: horizontal activity, total distance traveled, vertical activity (rearing events—animal raises up on hindlimbs), rotation, stereotypy, and distance traveled in the center compared to total distance traveled (center: total distance ratio). The NMDA antagonist PCP induces psychosis-like conditions manifested as hyperactivity and increased stereotypic behavior. Known antipsychotics are able to reverse psychostimulant-induced hyperactivity and increased stereotypy.
C57BL/6 male mice were injected with either compound (10 mg/kg) or vehicle via i.p. Ten minutes later, the mice were injected with PCP (5 mg/kg) via i.p. The mice were placed in the activity chambers 10 minutes after PCP injection and their locomotor activities were monitored by infrared beam breaks for 20 min.
C57BL/6 male mice were administered either compound or vehicle via oral gavage. Fifteen minutes later, the mice were injected with PCP (5 mg/kg) via the i.p. route. The mice were placed in activity chambers 10 minutes after PCP injection, and their locomotor activity in the horizontal dimension was monitored by infrared beam breaks for 20 min (5 consecutive 4-minute intervals (INT) as indicated).
C57BL/6 male mice were administered either compound or vehicle via oral gavage. Twenty-five minutes later, the mice were injected with PCP (5 mg/kg) via the i.p. route. The mice were placed in activity chambers 10 minutes after PCP injection and their locomotor activity in the horizontal dimension was monitored by infrared beam breaks for 20 min (5 consecutive 4-minute intervals (INT) as indicated).
C57BL/6 male mice were given either compound or vehicle by oral gavage. Twenty-five minutes later they were injected with PCP (5 mg/kg, i.p.). Ten minutes later, the mice were placed in activity chambers, and their locomotor activity in the horizontal dimension was monitored by infrared beam breaks for 20 min (5 consecutive 4-minute intervals (INT) as indicated).
C57BL/6 male mice were co-injected with PCP (5 mg/kg) and either compound or vehicle via the i.p. route. Ten minutes later, the mice were placed in activity chambers and their locomotor activity in the horizontal dimension was monitored by infrared beam breaks for 20 min (5 consecutive 4-minute intervals (INT) as indicated).
C57BL/6 male mice were administered either compound or vehicle via oral gavage. Twenty-five minutes later, the mice were injected with PCP (5 mg/kg) via the i.p. route. The mice were placed in the activity chambers 10 minutes after PCP injection and their locomotor activity in the horizontal dimension was monitored by infrared beam breaks for 20 min (5 consecutive 4-minute intervals (INT) as indicated).
C57BL/6 male mice were administered either compound or vehicle via oral gavage. Twenty-five minutes later, the mice were injected with PCP (5 mg/kg) via the i.p. route. The mice were placed in the activity chambers 10 minutes after injection and their locomotor activity in the horizontal dimension was monitored by infrared beam breaks for 20 min (5 consecutive 4-minute intervals as indicated).

For assay [4], the system named is C57BL/6 male mice. As to the kind of experiment: Conditioned avoidance response (CAR) model of psychosis. Format: in vivo. To be noted: for number of avoidance responses (CAR) vs vehicle: 30 trials; for conditioned avoidance response (CAR) in trained mice as compared to vehicle control: mouse, in vivo.
Text: Conditioned avoidance response (CAR) is a behavioral test to evaluate antipsychotic effect of a test compound. […] Each chamber is fitted with metal grid floor that is capable of delivering electric shocks independently. A computer program is used to implement the testing paradigm as well as record the animal's movement between the two chambers through infrared beam sensors. The testing paradigm is as the follows. A mouse is placed into one chamber. A light (conditioned stimulus, CS) comes on. Five seconds later, mild electric shocks (0.4 mA) (unconditioned stimulus, US) are delivered to the chamber where the mouse is located (as detected by infrared beams) until the mouse escapes to the adjacent chamber or until 10 sec has elapsed. The US and CS always co-terminate. With randomized inter-trial intervals averaging 15 sec, 30 such CS-US pairing trials are given to each mouse each day. For each trial, an escape response is registered if the mouse crosses to the other chamber after being shocked (i.e., during the 10-sec US period), and an avoidance response is registered if the mouse crosses to the other chamber during the first 5-sec CS only period. The animals are trained in such paradigm for 15-20 days, during which the average percentage of avoidance responses will improve to 60-80%. […] These trained animals are then used for compound testing using the same paradigm.
The mice were then injected with either compound or vehicle via i.p., and 20 minutes later they were tested for 30 trials in the CAR paradigm. Vehicle treatment and compound treatment were given to the same animals on alternating days, and the effect of compound in reducing avoidance response was analyzed through within-subject comparison (paired t-test). […] The mice were then given either vehicle (15 minutes prior to testing) or compound (25 minutes prior to testing) via oral gavage, and were tested for 30 trials in the CAR paradigm. Vehicle treatment and compound treatment were given to the same animals on alternating days, and the effect of compound in reducing avoidance response was analyzed through within-subject comparison (paired t-test).
The mice were then given either vehicle (15 minutes prior to testing) or compound (25 minutes prior to testing) via oral gavage, and then were tested for 30 trials in the CAR paradigm. Vehicle treatment and compound treatment were given to the same animals on alternating days, and the effect of compound in reducing avoidance response was analyzed through within-subject comparison (paired t-test).
The mice were then given either vehicle (15 minutes prior to testing) or compound (25 minutes prior to testing) via oral gavage, and were then tested for 30 trials in the CAR paradigm. Vehicle treatment and compound treatment were given to the same animals on alternating days, and the effect of compound in reducing avoidance response was analyzed through within-subject comparison (paired t-test).
The mice were then given either vehicle (15 minutes prior to testing) or compound (25 minutes prior to testing) via oral gavage, and were tested for 30 trials in the CAR paradigm.
In assay [5] the target is T1, recombinant human PDE 10A1 (Homo sapiens, UniProt Q9Y233).
T1 construct: made in house; host or cells: Sf9 insect cells, baculoviral system
As to the kind of experiment: PDE10 biochemical assay (two-step Thompson and Appleman method or SPA). To be noted: PDE10 inhibition; read-out: IC50. On the procedure:
After the appropriate incubation time, the reaction is terminated by heating. The mixture is then subjected to treatment with snake venom phosphatase. […] IC50 values can be calculated by performing the experiment at several concentrations using standard graphical means. A detailed description of the actual technique used for IC50 assays as set forth in following Examples.
The phosphodiesterase (PDE) assay was performed using recombinant human PDE 1A3, 2A3, 3 catalytic region, 4 catalytic region, 5 catalytic region, 7A, 8A, 9A2, 10A1 and 11A1 enzymes expressed in a baculoviral system using Sf9 cells. PDE activity was measured using a modification of the two-step method of Thompson and Appleman described above which was adapted for 96 well plate format. […] Reactions were initiated with enzyme and incubated with (^3H)-substrate and substance for 20 minutes at 30° C. The reaction was terminated by denaturing the enzyme (heating the reaction to 70° C. for 2 minutes). The reaction was then cooled at 4° C. for 10 minutes before the addition of snake venom (Crotalus atrox, 0.2 mg/ml) for 10 minutes at 30° C., thus allowing non-specific hydrolysis of the tritiated substrate. Separation of the remaining unhydrolysed cyclic nucleotide was achieved by a batch binding of the mixture to activated Dowex (200 μl) anion exchange resin. The anion exchange resin bound the charged nucleotides, leaving only hydrolysed (^3H) substrate in the soluble fraction. The soluble fraction (50 μl) was then added to microscint-20 (200 μl) and counted on a Top Count Plate reader. Radioactivity units were plotted against inhibitor concentration and IC50 values obtained using Graph Pad Prism software.
Alternatively, phosphodiesterase activity was measured by scintillation proximity assay (SPA) with [^3H]-cGMP as substrate. Purified PDE10 was diluted and stored in 25 mM Tris-Cl (pH 8.0)/100 mM NaCl/0.05% Tween 20/50% glycerol/3 mM DTT. Assays contained (final concentrations): 50 mM Tris-Cl (pH 7.5)/8.3 mM MgCl2/1.7 mM EGTA/0.5 mg/ml BSA/5% DMSO and 2 ng PDE10 in a final volume of 0.1 mL. Inhibition was evaluated at 8 concentrations in duplicate. Reactions were initiated by addition of enzyme and were terminated after 20 minutes at 30° C. by the addition of 50 μl of SPA beads containing Zn^++. The mixture was shaken, allowed to settle for 3 hours, and counted in a Wallac plate counter. Results (net cpm) were fitted to a four parameter logistic model using Excel Solver®.

T1 sequence (Q9Y233 1-779 isoform Q9Y233-1): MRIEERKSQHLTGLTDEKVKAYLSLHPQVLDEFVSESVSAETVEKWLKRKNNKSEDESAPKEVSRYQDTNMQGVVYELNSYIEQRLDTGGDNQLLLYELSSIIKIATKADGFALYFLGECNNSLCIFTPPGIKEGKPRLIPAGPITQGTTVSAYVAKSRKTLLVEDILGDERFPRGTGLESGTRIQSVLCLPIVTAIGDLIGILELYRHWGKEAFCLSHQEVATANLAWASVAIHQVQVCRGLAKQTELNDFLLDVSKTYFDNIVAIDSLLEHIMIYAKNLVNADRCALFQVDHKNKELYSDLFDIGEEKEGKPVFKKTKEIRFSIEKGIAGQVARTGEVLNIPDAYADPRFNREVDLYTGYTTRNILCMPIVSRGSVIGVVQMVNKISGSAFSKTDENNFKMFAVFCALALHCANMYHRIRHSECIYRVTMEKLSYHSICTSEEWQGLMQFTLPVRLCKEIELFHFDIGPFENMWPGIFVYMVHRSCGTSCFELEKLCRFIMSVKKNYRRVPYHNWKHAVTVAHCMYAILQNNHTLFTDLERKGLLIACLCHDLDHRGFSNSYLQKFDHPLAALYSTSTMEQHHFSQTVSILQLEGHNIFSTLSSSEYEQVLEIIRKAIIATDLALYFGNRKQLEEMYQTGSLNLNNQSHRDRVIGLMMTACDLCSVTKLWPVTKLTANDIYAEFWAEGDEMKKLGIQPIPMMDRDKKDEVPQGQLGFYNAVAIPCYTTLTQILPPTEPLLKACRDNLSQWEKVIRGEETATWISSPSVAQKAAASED

`Nc1nc2c(ncn2[C@@H]2O[C@@H]3COP(=O)(O)O[C@H]3[C@H]2O)c(=O)[nH]1` [cGMP]: the Km in the assay with PDE10 [1] (substrate hydrolysis by PDE10) was 3 µM. In addition, the Kd on PDE10 [2] was more than 9000 nM.

Turning to `COc1cc(/C=N/NC(=O)C(OC)c2ccc(N3CCOCC3)cc2)cc(OC)c1Br` (stereo not drawn) [Compound 12-114], in the assay on C57BL/6 male mice [3] (mouse, in vivo), the “PCP-induced hyperactivity compared to vehicle+PCP control” value is recorded as “completely abolishes the hyperactivity” and the “hyperactivity of mice in PCP-induced model of psychosis as compared to vehicle control” value (“hyperactivity … compared to vehicle control” below) is given as “significantly reduces hyperactivity”. The “number of avoidance responses (CAR) vs vehicle” value (“number … vs vehicle” for short) with C57BL/6 male mice [4] (10 mg/kg oral) was “significantly reduces the number of avoidance response”. In the assay on C57BL/6 male mice [4], the “conditioned avoidance response (CAR) in trained mice as compared to vehicle control” value is reported as “significantly reduces a conditioned avoidance response”.

Turning to `CC(C)Cn1c(=O)n(C)c(=O)c2[nH]cnc21` [IBMX, reference compound], the IC50 with PDE10 [1] (read-out: IC50 (50% inhibitory concentration), inhibition of PDE10) is 2600 nM.

In the case of `CCOC(C(=O)N/N=C/c1cc(OC)c(Br)c(OC)c1)c1cccc2ncccc12` (stereo not drawn) [Compound 12-60], the “PCP-induced hyperactivity compared to vehicle” value in the assay with C57BL/6 male mice [3] (10 mg/kg i.p., ten minutes before PCP 5 mg/kg i.p.) is recorded as “a similar result”. Also, the “hyperactivity … compared to vehicle control” value with C57BL/6 male mice [3] (dose not stated) is listed as “significantly reduces hyperactivity”. Moreover, the IC50 in assay [5] was not above 1000 nM.

For the compound `COc1cc(/C=N/NC(=O)C(OC)c2ccc(-n3cccn3)cc2)cc(OC)c1Br` (stereo not drawn) [Compound 12-104], in the assay on C57BL/6 male mice [3] (mouse, in vivo), the “PCP-induced hyperactivity compared to vehicle+PCP control” value is reported as “reduces or abolishes the hyperactivity” and the “hyperactivity … compared to vehicle control” value was “significantly reduces hyperactivity”. Besides, the “number … vs vehicle” value in the assay on C57BL/6 male mice [4] (10 mg/kg oral) is listed as “significantly reduces the number of avoidance response”. Also, the “number … vs vehicle” value with C57BL/6 male mice [4] (30 mg/kg oral) is reported as “significantly reduces the number of avoidance response”. Moreover, in the assay with C57BL/6 male mice [4], the “conditioned avoidance response (CAR) in trained mice as compared to vehicle control” value is on record as “significantly reduces a conditioned avoidance response”.
